A short description of this data set: Solubility determination of bulk substance in test solutions of various pH (37° C., 1 hour). The class given is physicochemical. The note with it: for solubility at 1 h: test solution. As for the experimental part:
Emonapride hydrochloride (0.05-5 g) was added to 10 ml portions of test solutions of various pH and each mixture was shaken at 37° C. for 1 hour, at the end of which it was filtered through Nucripore Membrane (pore size 0.6 μm). A definite portion of the filtrate was taken out and diluted with acetate buffer (pH 3.0) for use as a sample solution.
Separately, about 0.1 g of emonapride hydrochloride was accurately weighed out and dissolved in methanol to make exactly 100 ml. One milliliter portion of this solution was accurately taken out and diluted with acetate buffer (pH 3.0) to make exactly 100 ml for use as the standard solution. For each of the test solution and the standard solution, the absorbance at 313 nm was measured by absorption spectrometry and the solubility was determined.
In the preparation of the test solutions, JP Test Solution 1 was used for pH 1.2, acetate buffer (S.phi.rensen buffer) for pH 2.0-5.0, phosphate buffer (Clark-Lubs buffer) for pH 6.0-7.6 and JP Test Solution 2 for pH 6.8.

Structures can show the parent of a compound that is named as a salt.

Consider `CNc1cc(OC)c(C(=O)NC2CCN(Cc3ccccc3)C2C)cc1Cl` (centres unmarked) [Emonapride, N-(1-Benzyl-2-methylpyrrolidin-3-yl)-5-chloro-2-methoxy-4-methylaminobenzamide], for which the “solubility (statement in the description)” value (conditions over pH 4) is reported as “drastically insoluble”.

Regarding `CNc1cc(OC)c(C(=O)NC2CCN(Cc3ccccc3)C2C)cc1Cl` (centres unmarked) [emonapride hydrochloride], the “solubility change with pH” value (as the pH exceeded 4, 37° C.) was “decreased sharply”. Further, for the setting “bulc substance, from solubility at various pH”, the “pH dependence of dissolution” value was “pH-dependent”. Further, the solubility (commonly how much of the substance goes into solution per volume) at 1 h by setting is: (pH≤4, 37° C.) at least 5000 µg/mL; (pH≥6.8, 37° C.) at most 10 µg/mL.
